Test results taken from patent US5001128A, “HMG-COA reductase inhibitors” (Rhone-Poulenc Rorer Pharmaceuticals Inc., priority 1989, dated 1991).

Legend:
[1] = test system: cholesterol synthesis in rat liver; assay: Ex-Vivo Fasted (cholesterol synthesis from [14C] sodium acetate in liver slices of orally dosed fasted rats); conditions: 1 mg/kg oral in 0.5% methocel, rats fasted 16 hours, livers removed after one hour
Protocol: The second method (designated Ex-Vivo Fasted) used was as follows. Rats of 170-210 g were maintained on a low cholesterol diet for one week prior to use. Drugs (identified in Table I) were given orally in 0.5% methocel to fasted (fasted for 16 hours) rats. After one hour the rats were decapitated and their livers removed and transferred to chilled oxygenated Kreb's-Ringer-bicarbonate buffer (pH 7.4). The livers were then chopped into 0.5 mm slices using a McIlwain tissue chopper, and were suspended in the same buffer. Aliquots of the suspension containing 100 mg tissue were pipetted to culture tubes which contained [^14 C] sodium acetate (2μ Ci, 1 mM). The tubes were gassed with 95% O2 /5 % CO2, capped and incubated at 37° C. in a shaking water bath at 150 oscillation/min. for two hours. The final assay volume was 1.0 ml. After incubation the reaction was stopped by the addition of 1.0 ml of 15% KOH in ethanol, and the internal standard ^3 H-cholesterol was added. The tubes were recapped and the samples were saponified at 75° C. for two hours with periodic mixing. Subsequently an aliquot was removed for protein analysis using Bio-Rad's standard kit, and the remainder of the saponified samples was extracted with 10 ml of petroleum ether for 30 minutes. […] After visualization with iodine the cholesterol spots were cut and counted with liquid scintillation fluid.

HMG-CoA reductase = assay: HMGR Screen (inhibition of solubilized rat liver HMG-CoA reductase, [14C] HMG-CoA); assay type: biochemical; conditions: solubilized rat liver microsomal enzyme; 20 μM HMG-CoA; 37° C.; pH 7.0; read-out: IC50 (Micromoles per liter), HMGR Screen
Protocol: The first method used (designated HMGR Screen) was as follows. Male rats were acclimated to an alternate 12 hour light-dark cycle for a period of 2-3 weeks. The animals, weighing 180-230 g, were fed ad libitum a rat chow containing 2% cholestyramine for 5 days prior to sacrifice at the mid-dark period. Liver microsomes were prepared and HMGR enzyme was solubilized from the microsomes by freeze-thaw manipulation in high ionic strength buffer. The enzyme preparation was stored at -80° C. in 300 μl portion samples. Prior to use, the enzyme was activated at 37° C. for 30 minutes in a reaction mixture. The reaction mixture contained in a volume of 240 μl:0.14M potassium phosphate buffer (pH 7.0); 0.18M KCl; 3.5 mM EDTA; 10 mM dithiothreitol; 0.1 mg/ml BSA; 30,000 cpm of [^14 C] HMG-CoA; 20 μM HMG-CoA, and 200 μg of solubilized enzyme with and without inhibitors (in 10 μDMSO). After 5 minutes incubation at 37° C. the reaction was initiated with 0.2 mM NADPH. The final assay volume was 300 μl. The reaction then was terminated with 100 μl of 1N HCl. After an additional incubation for 15 minutes at 37° C. to allow for complete lactonization of the product, the mixture was diluted with 3 ml GDW. […] After the addition of 10 ml of Aquasol , radioactivities of the samples were measured in a scintillation counter.

| SMILES | inhibition at 1 mg/kg [1] [%] | IC50 (HMG-CoA reductase) [nM] |
| --- | --- | --- |
| O=C(O)C[C@H](O)C[C@H](O)/C=C/C1=C(c2ccc(F)cc2)C=C(c2ccccc2)C12CCCC2 (relative stereo) | 65 ± 4 |  |
| O=C1C[C@@H](O)C[C@H](/C=C/C2=C(c3ccc(F)cc3)C=C(c3ccccc3)C23CCCC3)O1 (relative stereo) [Compound of Example I Step 9, Trans-(E)-6-[2-[2-(4-fluorophenyl)-4-phenyl-spiro[4,4]-nona-1,3-dien-1-yl]ethenyl]-3,4,5,6-tetrahydro-4-hydroxy-2H-pyran-2-one] |  | 0.9 |
| O=C1C[C@@H](O)C[C@H](/C=C/C2=C(c3ccc(F)cc3)C=C(c3ccccc3)C23CCCC3)O1 (relative stereo) [Lactone Form of Compound of Example I Step 9] [Trans-(E)-6-[2-[2-(4-fluorophenyl)-4-phenyl-spiro[4,4]-nona-1,3-dien-1-yl]ethenyl]-3,4,5,6-tetrahydro-4-hydroxy-2H-pyran-2-one] |  | 70 |
